Tests used:
CBP/β-Catenin = assay: SuperTOPFLASH cell-based luciferase assay (Wnt-driven Luciferase Activity in Stably Transfected Cell Line, Hek293, STF1.1)
Method: SuperTOPFLASH Cell-based Luciferase Assay. Hek-293, STF1.1 cells are maintained in DMEM, 10% FBS, Pen-Strep supplemented with 200 μg/mL G418. On the day prior to assay, cells are split into a white, opaque 96-well plate at 10,000 cells per well in 50 μL of complete medium without G418 (for screening of Wnt-signaling inhibitors, G418 can be left out during screening process). After allowing the cells to stabilize and attach overnight, 40 μL of complete medium (without G418) containing 2.5× final concentration of compound or DMSO control is added to the cells and allowed to incubate for 1 hour at 37° C., 5% CO2 prior to adding 10 μL of a 100 mM LiCl solution prepared in complete medium (without G418). After 24 hours, 100 μL of BrightGlo (Promega, Cat. #: G7573) is added to each well and the plate is shaken for 5 minutes prior to reading on the Perkin-Elmer EnVision Plate Reader. For example, on the day prior to assay: cells are split into a white opaque 96-well plate at 10,000 cells per well in 50 μL of complete growth medium; the plate is incubated overnight at 37° C., 5% CO2 and the cells allowed to attach; the next day inhibitors to be tested are prepared in complete growth medium at 2.5× the desired final concentration (all conditions are done in duplicates), and 40 μL of the medium containing the 2.5× concentration of compound is added to each well (include 2 wells for stimulation control, 2 wells for DMSO control, and wells for the positive control ICG-001 (e.g., 2, 5, and 10 micromolar)); once all inhibitors and controls are added, incubate the plate for 1 hour at 37° C., 5% CO2 (while plate is incubating, prepare fresh 100 mM LiCl in complete growth medium); after 1 hour, the plate is removed from the incubator and 10 μL of the medium containing 100 mM LiCl are added to each well (except for the two wells of the unstimulated control, to which […] of just complete medium is added); the plate is incubated for 24 hours at 37° C., 5% CO2; after 24 hours, 100 microliters of BrightGlo (Promega, Cat. #: G7573) is added to each well, the plate is shaken for 5 minutes to ensure complete lysis, and the plate is then read on a Perkin-Elmer EnVision 96-well plate reader.

[1] = system: T memory stem cells (SCM) and central memory T-cells (CM); details: ART-suppressed SIVmac251-infected RMs; cited from earlier work
[2] = intravenous, patients with HCV cirrhosis, cited from earlier work
[3] = FIG. 1, compounds 0.078 μM to 10 μM, ICG-001 positive control at 0.62-20 μM
[4] = 10 and 40 mg/m^2/day for 12 weeks
[5] = FIG. 2, compounds 0.625 μM to 5 μM, ICG-001 positive control at 2.5, 5 and 10 μM

SMILES: O=C1[C@H](Cc2ccc(O)cc2)N2C(=O)CN(Cc3cnn(-c4ccccc4)c3)N(C(=O)NCc3ccccc3)[C@H]2CN1Cc1cccc2ncccc12 [Compound 1, (6S,9aS)—N-benzyl-6-(4-hydroxybenzyl)-4,7-dioxo-2-((1-phenyl-1H-pyrazol-4-yl)methyl)-8-(quinolin-5-ylmethyl)octahydro-1H-pyrazino[2,1-c][1,2,4]triazine-1-carboxamide]
- CBP/β-Catenin inhibition activity: potency compared with ICG-001 (CBP/β-Catenin; [3]): greater potency than that of ICG-001
- CBP/β-Catenin inhibition activity: potency compared between compounds 1 and 2 (CBP/β-Catenin; FIG. 1, concentrations between 0.078 μM and 10 μM): greater potency than that of compound 2

SMILES: C[C@H]1[C@H]2N(C(=O)CN(C)N2C(=O)NCc2ccccc2)[C@@H](Cc2ccc(OP(=O)(O)O)cc2)C(=O)N1Cc1cccc2cccnc12 [PRI-724]
- Proliferation of T memory stem cells (SCM) and central memory (CM) T-cells [1]: decrease proliferation
- Safety ([2]; 10 and 40 mg/m^2/day for 12 weeks (1 week on and 1 week off)): appeared to be safe
- Liver histology and Child Pugh scores [2, 4]: improvement in liver histology and Child Pugh scores in several patients
- Plasma exposure of the drug [2, 4]: dose-dependent plasma exposure

SMILES: O=C1[C@H](Cc2ccc(O)cc2)N2C(=O)CN(Cc3cnn(-c4ccccc4)c3Br)N(C(=O)NCc3ccccc3)[C@H]2CN1Cc1cccc2ncccc12 [Compound 2, (6S,9aS)—N-benzyl-2-((5-bromo-1-phenyl-1H-pyrazol-4-yl)methyl)-6-(4-hydroxybenzyl)-4,7-dioxo-8-(quinolin-5-ylmethyl)octahydro-1H-pyrazino[2,1-c][1,2,4]triazine-1-carboxamide]
- CBP/β-Catenin inhibition activity: potency compared with ICG-001 (CBP/β-Catenin; [3]): greater potency than that of ICG-001

SMILES: O=C1[C@H](Cc2ccc(O)cc2)N2C(=O)CN(Cc3cnn(-c4ccccc4)c3)N(C(=O)NCc3ccccc3)[C@H]2CN1Cc1cccc2cccnc12 [Compound 4, (6S,9aS)—N-benzyl-6-(4-hydroxybenzyl)-4,7-dioxo-2-((1-phenyl-1H-pyrazol-4-yl)methyl)-8-(quinolin-8-ylmethyl)octahydro-1H-pyrazino[2,1-c][1,2,4]triazine-1-carboxamide]
- CBP/β-Catenin inhibition activity: potency compared with ICG-001 (CBP/β-Catenin; [5]): greater potency than that of ICG-001
- CBP/β-Catenin inhibition activity: potency compared between compounds 3 and 4 (CBP/β-Catenin; FIG. 2, concentrations between 0.625 μM and 5 μM): greater potency than that of compound 3

SMILES: O=C1[C@H](Cc2ccc(O)cc2)N2C(=O)CN(Cc3ccn(-c4ccccc4)n3)N(C(=O)NCc3ccccc3)[C@H]2CN1Cc1cccc2cccnc12 [Compound 3, (6S,9aS)—N-benzyl-6-(4-hydroxybenzyl)-4,7-dioxo-2-((1-phenyl-1H-pyrazol-3-yl)methyl)-8-(quinolin-8-ylmethyl)octahydro-1H-pyrazino[2,1-c][1,2,4]triazine-1-carboxamide]
- CBP/β-Catenin inhibition activity: potency compared with ICG-001 (CBP/β-Catenin; [5]): greater potency than that of ICG-001

From US20240352020A1, “PYRAZOLE-CONTAINING CBP/CATENIN ANTAGONISTS AND USES THEREOF” (3+2 PHARMA, LLC, priority 2021, published 2024)
